Measured values published in patent US20020128256A1, “Methods for the treatment or prevention of inflammatory diseases characterized by abnormal cell proliferation” (priority 1997, published 2002).
pIC50: −log10 of the molar value. Like-named read-outs stand apart in the source and are kept apart here.

Columns and labels:
Gardos channel = Gardos channel (Homo sapiens, UniProt O15554); parameters: host or cells: sickle erythrocytes (printed for Clotrimazole only); conditions: cited from earlier work
[1] = target: T1, Gardos channel of erythrocytes (Homo sapiens, UniProt O15554); test: Gardos Channel Assay; type: cell-based; conditions: for inhibition at 10 µM: read-out: Gardos Channel Assay Inhibition (%)
T1 construct: endogenous in cells; host or cells: erythrocytes

[2] = system: NIH 3T3 mouse fibroblast cells; test: Mitogenic Assay (mitogen-induced cell proliferation); type: cell-based
HeLa = test: SRB antiproliferative assay, HeLa; type: cell-based; conditions: Homo sapiens, HeLa, 120 h, read-out: SRB assay IC50
Description: (§1) The antiproliferative assays described herein were performed using standard aseptic procedures and universal precautions for the use of tissues. Cells were propagated using RPMI 1640 media (Gibco) containing 2% N 5% fetal calf serum (Biowhittaker) at 37° C., 5% CO2 and 95% humidity. The cells were passaged using Trypsin (Gibco). Prior to addition of test compound, the cells were harvested, the cell number counted and seeded at 10,000 cells/well in 100 μl 5% fetal calf serum (FCS) containing RPMI medium in 96-well plates and incubated overnight at 37° C., 5% CO2 and 95% humidity.
(§2) Following incubation, the cellular protein was determined with the ulforhodamine B (SRB) assay (Skehan P et al., 1990, J. Natl. Cancer Inst. 82:1107-1112).

U118MG = test: SRB antiproliferative assay, U118MG; type: cell-based; conditions: Homo sapiens, U-118-MG
Description: as §1, §2

HEPG2 = test: SRB antiproliferative assay, HEPG2; type: cell-based; conditions: Homo sapiens
Description: as §1, §2

ACHN = test: SRB antiproliferative assay, ACHN; type: cell-based; conditions: Homo sapiens, ACHN, 120 h, read-out: SRB assay IC50
Description: as §1, §2

MMRU = test: SRB antiproliferative assay, MMRU; type: cell-based, human; conditions: Homo sapiens
Description: Cells were propagated using RPMI 1640 media (Gibco) containing 2% N 5% fetal calf serum (Biowhittaker) at 37° C., 5% CO2 and 95% humidity. The cells were passaged using Trypsin (Gibco). Prior to addition of test compound, the cells were harvested, the cell number counted and seeded at 10,000 cells/well in 100 μl 5% fetal calf serum (FCS) containing RPMI medium in 96-well plates and incubated overnight at 37° C., 5% CO2 and 95% humidity.
as §2

HT29 = test: SRB antiproliferative assay, HT29; type: cell-based; conditions: Homo sapiens
Description: as §1, §2

MDA-MB-231 = test: SRB antiproliferative assay, MDA-MB-231; type: cell-based; conditions: Homo sapiens, 120 h, read-out: SRB assay IC50
MCF7 = test: SRB antiproliferative assay, MCF7; type: cell-based; conditions: Homo sapiens
Description: as §1, §2

SK-MEL-28 = test: SRB antiproliferative assay, SK-MEL-28; type: cell-based; conditions: Homo sapiens, SK-MEL-28, 120 h, read-out: SRB assay IC50
Description: as §1, §2

HCT-15 = test: SRB antiproliferative assay, HCT-15; type: cell-based; conditions: Homo sapiens, HCT-15, 120 h, read-out: SRB assay IC50
Description: as §1, §2

HUVEC = test: SRB assay, normal cells HUVEC; type: cell-based, human; conditions: Homo sapiens, HUVEC, 120 h, read-out: SRB assay IC50
Description: as §1, §2

3T3 = test: SRB assay, normal cells 3T3; type: cell-based, mouse; conditions: Mus musculus, NIH3T3, 120 h, read-out: SRB assay IC50
Description: as §1, §2

HTB174 = test: SRB antiproliferative assay, HTB174; type: cell-based; conditions: 120 h, read-out: SRB assay IC50
Description: as §1, §2

A549 = test: SRB antiproliferative assay, A549; type: cell-based; conditions: Homo sapiens
Description: as §1, §2

CaSki = test: SRB antiproliferative assay, CaSki; type: cell-based; conditions: Homo sapiens, Ca-Ski, 120 h, read-out: SRB assay IC50
Description: as §1, §2

GM = test: SRB assay, normal cells GM; type: cell-based, human; conditions: Homo sapiens, 120 h, read-out: SRB assay IC50
Description: as §1, §2

L929 = test: SRB assay, normal cells L929; type: cell-based, mouse; conditions: Mus musculus, L929, 120 h, read-out: SRB assay IC50
Description: as §1, §2

DU-145 = test: SRB antiproliferative assay, DU-145; type: cell-based; conditions: Homo sapiens, DU-145, 120 h, read-out: SRB assay IC50
Description: as §1, §2

[3] = measured at 10 μM compound, NIH 3T3 cells
[4] = erythrocytes, read-out: Gardos Channel Assay IC50
[5] = 120 h, read-out: SRB assay IC50

T1 sequence (O15554 whole entry): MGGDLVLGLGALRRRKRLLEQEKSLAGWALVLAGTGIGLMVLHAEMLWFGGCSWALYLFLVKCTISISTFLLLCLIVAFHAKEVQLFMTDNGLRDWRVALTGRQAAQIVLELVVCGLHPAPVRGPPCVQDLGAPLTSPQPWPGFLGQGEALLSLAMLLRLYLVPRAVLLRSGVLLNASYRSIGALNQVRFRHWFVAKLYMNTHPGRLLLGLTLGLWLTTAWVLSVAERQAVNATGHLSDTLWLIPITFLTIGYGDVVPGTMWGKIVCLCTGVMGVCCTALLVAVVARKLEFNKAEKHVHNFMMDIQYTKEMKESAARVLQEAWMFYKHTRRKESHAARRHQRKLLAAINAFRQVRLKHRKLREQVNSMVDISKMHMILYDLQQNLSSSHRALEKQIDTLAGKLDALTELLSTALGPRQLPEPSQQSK
Chain of Gardos channel (O15554 whole entry): as above

## Clc1ccc(CCC(Cn2ccnc2)Sc2c(Cl)cccc2Cl)cc1 (stereo not shown) [butoconazole]
Gardos channel
  Gardos channel inhibition in vitro: inhibit the Gardos channel in vitro

## N#CC1OC12CC(c1ccccc1)(c1ccccc1)c1ccccc12 (stereo not shown) [Compound 5, Spiro[3,3-diphenyl-2,3-dihydro(1H)indene-1,3′-2′-cyanooxirane]]
[1]; measured at 10 μM compound
  Gardos Channel Assay Inhibition (%): 67.3%
[2]; [3]
  Mitogenic Assay Inhibition (%): 29.0%

## O=C1c2ccccc2C(c2ccccc2)(c2ccccc2)C1CCCO (stereo not shown) [Compound 19, 3-(3′,3′-diphenyl-2′-indanyl-1′-one)propanol]
[1]
  pIC50: 5.23
  inhibition at 10 µM: 43.7%
other
  melting point: 98 °C

## NC(=O)CC1C(=O)c2ccccc2C1(c1ccccc1)c1ccccc1 (stereo not shown) [Compound 12, 2-Acetamide-3,3-diphenylindanone]
[1]; [4]
  pIC50: 6.72
[1]; measured at 10 μM compound
  inhibition at 10 µM: 99.5%
other
  melting point: 169 to 171 °C

## O=C1CC(c2ccc(Cl)cc2)(c2ccc(Cl)cc2)c2ccc(Cl)cc21 [Compound 8, 6-Chloro-3,3-di(4-chlorophenyl)indanone]
HeLa
  pIC50: < 5.00
U118MG; [5]
  pIC50: < 5.00
U118MG; read-out: SRB IC50
  pIC50: < 5.00
HEPG2; HepG2, 120 h, read-out: SRB assay IC50
  pIC50: 5.19
HEPG2; HepG2, read-out: SRB IC50
  pIC50: 5.11
ACHN
  pIC50: < 5.00
MMRU; [5]
  pIC50: < 5.00
MMRU; read-out: SRB IC50
  pIC50: 5.48
HT29; HT-29, 120 h, read-out: SRB assay IC50
  pIC50: 5.08
HT29; HT-29, read-out: SRB IC50
  pIC50: < 5.00
MDA-MB-231
  pIC50: < 5.00
MCF7; MCF7, 120 h, read-out: SRB assay IC50
  pIC50: 5.26
MCF7; MCF7, read-out: SRB IC50
  pIC50: < 5.00
SK-MEL-28
  pIC50: < 5.00
HCT-15
  pIC50: < 5.00
HUVEC
  pIC50: < 5.00
3T3
  pIC50: < 5.00
HTB174
  pIC50: < 5.00
A549; A549, 120 h, read-out: SRB assay IC50
  pIC50: 5.05
A549; A549, read-out: SRB IC50
  pIC50: < 5.00
[2]; Mus musculus, NIH3T3, read-out: Mitogenic Assay IC50
  pIC50: 5.70
[2]; Mus musculus, NIH3T3, read-out: Mitogenic Assay Inhibition (%)
  inhibition at 10 µM: 97%
CaSki
  pIC50: 5.17
GM
  pIC50: < 5.00
other
  melting point: 134 °C
L929
  pIC50: < 5.00
DU-145
  pIC50: < 5.00

## 2-(Ethyl-2′-(1,3-dioxolane))-1-hydroxy-3,3-diphenylindene [Compound 20]
[1]; measured at 10 μM compound
  Gardos Channel Assay Inhibition (%): 0%
[2]; [3]
  Mitogenic Assay Inhibition (%): 81.0%

## Clc1ccccc1COC1CC(c2ccccc2)(c2ccccc2)c2ccccc21 (stereo not drawn) [Compound 18, 3,3-Diphenyl-1-indanyl α-(2-chlorotoluyl) ether]
[1]; measured at 10 μM compound
  Gardos Channel Assay Inhibition (%): 0%
[2]; [3]
  Mitogenic Assay Inhibition (%): 73.0%

## N#CCC1C(=O)c2ccccc2C1(c1ccccc1)c1ccccc1 (stereo not shown) [Compound 9, 2-cyanomethyl-3,3-diphenylindanone]
[1]; [4]
  pIC50: 6.30
[1]
  inhibition at 10 µM: 100%

## NC(=O)CC1C(O)c2ccccc2C1(c1ccccc1)c1ccccc1 (stereo not shown) [Compound 14, 2-Acetamide-3,3-diphenylindanol]
[1]; [4]
  pIC50: 5.53
[1]; measured at 10 μM compound
  inhibition at 10 µM: 90.5%
[2]; Mus musculus, NIH3T3, measured at 10 μM compound, NIH 3T3 cells, read-out: Mitogenic Assay Inhibition (%)
  inhibition at 10 µM: 3%
other
  melting point: 218 to 220 °C

## COC(=O)CC1C(=O)c2ccccc2C1(c1ccccc1)c1ccccc1 (stereo not shown) [Compound 15, 3,3-Diphenylindanone-2-methyl acetate]
[1]; [4]
  pIC50: 5.54
[1]; measured at 10 μM compound
  Gardos Channel Assay Inhibition (%): 54.8%
[2]; NIH 3T3 mouse fibroblast cells, mitogen-induced proliferation, read-out: Mitogenic Assay IC50
  pIC50: 5.12
[2]; [3]
  Mitogenic Assay Inhibition (%): 80.0%

## O=C1CC(c2ccccc2)(c2ccccc2)c2ccccc21 [Compound 2, 3,3-Diphenylindanone]
[1]; [4]
  pIC50: 6.00
[1]; measured at 10 μM compound
  inhibition at 10 µM: 100%
